In patent US20180030482A1 (Moralco B.V., priority 2014, published 2018):
Several values for one entry are separate records, joined by “and”; a condition that tells them apart may be missing. Equal entries are not always repeated.

Legend:
[1] = kH=Ca/Pg, concentration in water over partial pressure in the gas phase; cited from earlier work
S. cerevisiae CBS 8066 [2] = assay: Anoxic chemostat fermentation under glucose limitation in absence or presence of acetaldehyde; format: cell-based, Saccharomyces cerevisiae; settings: for Δ ethanol produced / Δ glycerol produced: relative to steady state 1 without acetaldehyde; for acetaldehyde concentration in chemostat sample / acetic acid concentration in chemostat sample / ethanol concentration in chemostat sample / glucose concentration in chemostat sample / glycerol concentration in chemostat sample / pyruvic acid concentration in chemostat sample / succinic acid concentration in chemostat sample: dilution rate 0.11 h^−1, duplicate samples A and B
Experimental: (§1) The column was eluted at 60° C. with 0.5 g/l H2S04 at a flow rate of 0.6 ml min^−1 . Detection was by means of a Waters 2410 refractive-index detector and a Waters 2487 UV detector. Initial and final glycerol concentrations were further determined using an enzymatic determination kit (Rbiopharm AG, Darmstadt, Germany).
The mineral salts medium employed was based on standard media (Bruinenberg et al. 1983. Journal of General Microbiology 129:965-971; Verduin et al 1990. Journal of General Microbiology 136:395-403). It contained the following per liter of demineralized water: (NH4)2SO4, 5 g; KH2PO4, 3 g; MgSO4.7H2O, 0.5 g; EDTA, 15 mg; ZnSO4.7H20, 4.5 mg; CoCl2 6H2O, 0.3 mg; MnCl2 4H20, 1 mg; CuSO4 5H20, 0.3 mg; CaCl2. 2H20, 4.5 mg; FeSO4 7H20, 3 mg; Na2MoO4. 2H2O, 0.4 mg; H3BO3, 1 mg; KI, 0.1 mg; and 0.025 ml silicone antifoam (BDH). After heat sterilization at 120° C. and cooling, filter sterilized vitamins were added: biotin, 0.05 mg; calcium pantothenate, 1 mg; nicotinic acid, 1 mg; inositol, 25 mg; thiamin.HCl, 1 mg; pyridoxine.HCl, 1 mg; and para-aminobenzoic acid, 0.2 mg. Ergosterol and Tween 80 were dissolved in pure ethanol and steamed at 100° C. for 10 minutes before they were added to the medium to give final concentrations of 10 and 400 mg/l, respectively, and a final concentration of 38 mM ethanol. […] The sterilized glucose solution was added to the sterile mineral salts medium to give the required final concentration.
Anoxic chemostat cultivation of the yeasts was done at 30° C. in a fermenter with a working volume of 1 liter and at a stirring speed of 600 r.p.m. The pH was automatically controlled at pH=5 by titration with 2 M KOH. The condenser at the outlet of the gas stream was connected to a cryostat and cooled at 2° C. The condensate was returned into the fermentation vessel. The tubing on the entire fermenter set-up (including medium- and waste-reservoirs) consisted of material (Norprene tubing) that is very poorly permeable for oxygen. The fermenter and the medium reservoir (with a magnetic stirrer) were sparged with certificated ultra-pure nitrogen prior to the addition of acetaldehyde to the reservoir.
Strain S. cerevisiae CBS 8066 was cultivated in chemostat culture at a dilution rate of 0.11 h^−1. The glucose concentration in the medium reservoir was […] in each run. Three separate steady states were obtained in either the absence or presence of acetaldehyde. The effect of the aldehyde on the fermentation was tested by adding the compound to the medium reservoir after a steady state situation in its absence (medium and samples “1”) had been established. […] In each of the three steady states (after 3-5 volume changes), the fermentation medium in the fermenter was analyzed for various compounds as summarized in Tables 1 and 2.

Lactococcus lactis = settings: cited from earlier work
S. cerevisiae CEN.PK2-1C = assay: Evolutionary engineering for enhanced tolerance to acetaldehyde (oxic batch cultivation); format: cell-based, Saccharomyces cerevisiae; settings: batch system; compared to the parent strain in the absence of acetaldehyde
Experimental: The flasks contained 20 ml mineral salts medium supplied with glucose (12 g/l) and they were incubated on a rotary shaker at 400 r.p.m. Air could enter in the flasks via cotton plugs.
The organisms were cultivated under oxic conditions in a batch-wise mode. The initial pH of the mineral salts medium was set at 6 by titrating with KOH and glucose was added at 12 g/l. […] The newly acquired strains retained their ability to withstand higher acetaldehyde levels also when cultivating them anoxically in mineral salts medium with glucose and for prolonged periods of times. This subculturing was by taking an aliquot of 0.5 ml from a culture that had consumed all glucose and by transferring this inoculum to fresh medium (50 ml).

Ethanol Red strain = assay: Batch fermentation testing acetaldehyde additions at high ethanol concentrations; format: cell-based; settings: acetaldehyde added once ethanol had reached 80 g/l, controlled between 0.06 and 0.1 g/l; 180 minutes without acetaldehyde
Experimental: The stirring speed was set at 300 r.p.m. and the pH of the mineral salts medium containing 280 g/l glucose was kept at 5 by adding 2 M NaOH. The condenser at the outlet of the gas stream was connected to a cryostat and cooled at 2° C. The condensate was returned into the fermentation vessel. […] Sampling was from a loop kept at 35° C. for circulating gas from the headspace. […] The solution entered in the aqueous phase via a needle at the outlet of the tubing.
The mineral salts medium was employed with the addition of yeast extract at 1 g/l. The initial cell concentration was 0.5 g/l dry biomass. Air was supplied to the headspace of the fermenter at 15 ml/min during the first 2 hours of cultivation after which conditions were kept anoxic. Glucose was added initially at 230 g/l. […] The concentration was monitored from the headspace and controlled in the fermenter liquid between 0.06 and 0.1 g/l. In a control experiment, no acetaldehyde was supplied.

[3] = test system: lactic acid bacteria, belonging to Lactobacillus, Pediococcus, Leuconostoc and Weissella; assay: Semi-anoxic co-culture of yeast with lactic acid bacteria at increasing acetaldehyde concentrations; format: cell-based; settings: increasing concentrations of acetaldehyde in subsequent batches; without acetaldehyde the bacteria remained present
Experimental: Media for plates (1.5% agar) for S. cerevisiae were the mineral salts medium supplement with 2% glucose and for lactic acid bacteria the de Man, Rogosa and Sharpe (MRS) medium. Cycloheximide (0.1 g/l) was added to the plates in case mixed cultures of yeast and lactic acid bacteria were studied.
Semi-anoxic batch cultivation of the yeasts together with lactic acid bacteria was done at 30° C. in 100-ml Erlenmeyer flasks. The flasks contained 50 ml mineral salts medium supplied with glucose (12 g/l) and they were incubated without shaking. Air could enter in the flasks via cotton plugs.
S. cerevisiae CEN.PK2-1C was subjected to evolutionary engineering analogous to the procedure described above, except that now semi-anoxic conditions were employed. Eight strains of lactic acid bacteria, belonging to Lactobacillus, Pediococcus, Leuconostoc and Weissella, were inoculated as well. The dynamics of the quantitative growth of the 9 organisms thus present as co-culture was followed during the procedure of evolutionary engineering. During each successive transfer step, the suspension after growth was plated on media that allow growth of either S. cerevisiae or of the 8 strains of lactic acid bacteria. […] Under this circumstance, the lactic acid bacteria remained present in the system.

S. cerevisiae CBS 8066 [4] = assay: Small-scale batch cultivation testing the effect of acetaldehyde on formation of ethanol and glycerol; format: cell-based, Saccharomyces cerevisiae; settings: 1.76 mM acetaldehyde in, single addition at start; 280 mM glucose at start; 90 minutes of incubation
Experimental: as §1
Carbon dioxide was allowed to escape from the bottles by inserting a needle in the septum of the cap. The bottles were incubated stationary. A sample per bottle was taken at the start of the experiment and after 90 minutes of incubation.
The initial cell concentration was 0.45 g/l dry biomass. Acetaldehyde was supplied to the bottle in a single addition at the start of the incubation. In a separate control run, no acetaldehyde was supplied.

[5] = Steady state 2 (6 mM acetaldehyde supplied)
[6] = Steady state 3 (15 mM acetaldehyde supplied)
[7] = steady state 2, 6 mM acetaldehyde supplied
[8] = steady state 3, 15 mM acetaldehyde supplied

## CCO [ethanol]
[1]
  Henry's law constant kH: approximately 200 M/atm

## CC=O [acetaldehyde]
S. cerevisiae CBS 8066 [2]; [5]
  acetaldehyde consumed: -6 mM
  glucose consumed: 136 mM
  Δ ethanol produced: 15 mM
  Δ glycerol produced: -6 mM
S. cerevisiae CBS 8066 [2]; [6]
  acetaldehyde consumed: -16 mM
  glucose consumed: 136 mM
  Δ ethanol produced: 27 mM
  Δ glycerol produced: -11 mM
S. cerevisiae CBS 8066 [2]; [7]
  acetaldehyde concentration in chemostat sample: 0.03 mM
  acetic acid concentration in chemostat sample: 0.64 mM and 0.54 mM
  ethanol concentration in chemostat sample: 243.13 mM and 244.74 mM
  glucose concentration in chemostat sample: 0.48 mM and 0.46 mM
  glycerol concentration in chemostat sample: 9.47 mM and 9.60 mM
  pyruvic acid concentration in chemostat sample: 0.56 mM and 0.51 mM
  succinic acid concentration in chemostat sample: 0.43 mM and 0.45 mM
S. cerevisiae CBS 8066 [2]; [8]
  acetaldehyde concentration in chemostat sample: 0.04 mM
  acetic acid concentration in chemostat sample: 0.78 mM and 0.69 mM
  ethanol concentration in chemostat sample: 255.35 mM and 255.25 mM
  glucose concentration in chemostat sample: 0.44 mM and 0.48 mM
  glycerol concentration in chemostat sample: 4.04 mM and 4.02 mM
  pyruvic acid concentration in chemostat sample: 0.48 mM
  succinic acid concentration in chemostat sample: 0.45 mM and 0.50 mM
[1]
  Henry's law constant kH: 15 M/atm
Lactococcus lactis
  concentration resulting in a reduction of the growth rate by 50%: 0.4 kg/m^3
  minimum inhibitory concentration (MIC): 35 mM and 1.5 kg/m^3
Lactococcus lactis; read-out: concentration resulting in a reduction of the growth rate by 50%
  IC50: 9 mM
S. cerevisiae CEN.PK2-1C
  acetaldehyde concentration in whose presence the evolved strain grew without a noticeable change in growth rate: 0.5 g/L
Ethanol Red strain
  time required to reach 98 g/l of ethanol in the liquid: 158 min
[3]
  fate of the lactic acid bacteria in the co-culture: disappeared
S. cerevisiae CBS 8066 [4]
  Acetaldehyde at end: 1.01 mM
  Ethanol at end: 6.67 mM
  Glycerol at end: 0.58 mM

## O=O [oxygen]
[1]
  Henry's law constant kH: 1.3*10^−3 M/atm
